# Measured values from ChEMBL document CHEMBL3525951, “Reevaluation of the microsomal metabolism of montelukast: major contribution by CYP2C8 at clinically relevant concentrations” (Drug Metab Dispos, 2011).
# B1: Cytochrome P450 2C9 (Homo sapiens) (protein)
# chain: MDSLVVLVLCLSCLLLLSLWRQSSGRGKLPPGPTPLPVIGNILQIGIKDISKSLTNLSKVYGPVFTLYFGLKPIVVLHGYEAVKEALIDLGEEFSGRGIFPLAERANRGFGIVFSNGKKWKEIRRFSLMTLRNFGMGKRSIEDRVQEEARCLVEELRKTKASPCDPTFILGCAPCNVICSIIFHKRFDYKDQQFLNLMEKLNENIKILSSPWIQICNNFSPIIDYFPGTHNKLLKNVAFMKSYILEKVKEHQESMDMNNPQDFIDCFLMKMEKEKHNQPSEFTIESLENTAVDLFGAGTETTSTTLRYALLLLLKHPEVTAKVQEEIERVIGRNRSPCMQDRSHMPYTDAVVHEVQRYIDLLPTSLPHAVTCDIKFRNYLIPKGTTILISLTSVLHDNKEFPNPEMFDPHHFLDEGGNFKKSKYFMPFSAGKRICVGEALAGMELFLFLTSILQNFNLKSLVDPKNLDTTPVVNGFASVPPFYQLCFIPV
# Assays:
# [1] = test system: Liver microsome; experiment: Drug level in human liver microsomes treated with montelukast at 0.02 to 0.4 uM preincubated for 3 mins followed by beta-NADPH addition by LC-MS analysis; format: ADME
# [2] = biological target: T1, Cytochrome P450 2C8 (Homo sapiens, UniProt P10632); experiment: Activity of recombinant human CYP2C8 expressed in microsomes isolated from baculovirus infected insect cell assessed as enzyme-mediated compound formation treated with 2-(1-(((1R)-1-(3-(2-(7-chloroquinolin-2-yl)vinyl)phenyl)-3-(2-(1,2-dihydroxypropan-2-yl)phenyl)propylthio)methyl)cyclopropyl)acetic acid at 0.02 uM after 30 mins by LC-MS analysis; format: ADME; conditions: 0.5 h
# T1 sequence (P10632 whole entry): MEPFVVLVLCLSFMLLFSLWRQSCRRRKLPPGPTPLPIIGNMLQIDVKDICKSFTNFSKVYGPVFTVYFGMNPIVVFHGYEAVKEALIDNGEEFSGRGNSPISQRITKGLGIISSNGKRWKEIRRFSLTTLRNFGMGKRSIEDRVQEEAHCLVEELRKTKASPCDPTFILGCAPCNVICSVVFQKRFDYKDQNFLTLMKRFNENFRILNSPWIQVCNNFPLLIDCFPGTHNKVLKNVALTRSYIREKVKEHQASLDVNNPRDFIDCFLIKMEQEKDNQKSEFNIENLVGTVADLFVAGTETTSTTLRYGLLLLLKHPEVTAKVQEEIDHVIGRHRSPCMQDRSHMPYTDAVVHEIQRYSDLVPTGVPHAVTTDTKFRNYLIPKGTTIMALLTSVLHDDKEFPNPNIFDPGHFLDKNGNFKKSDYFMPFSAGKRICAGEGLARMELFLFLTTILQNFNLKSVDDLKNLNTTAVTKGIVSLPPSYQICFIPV
# [3] = biological target: Cytochrome P450 3A5 (Homo sapiens, UniProt P20815); experiment: Activity of recombinant human CYP3A5 expressed in microsomes isolated from baculovirus infected insect cell assessed as enzyme-mediated compound formation treated with montelukast at 1 uM after 60 mins by LC-MS analysis; format: ADME; conditions: 1 h
# [4] = biological target: Cytochrome P450 3A4 (Homo sapiens, UniProt P08684); experiment: Activity of recombinant human CYP3A4 expressed in microsomes isolated from baculovirus infected insect cell assessed as enzyme-mediated compound formation treated with montelukast at 1 uM after 60 mins by LC-MS analysis; format: ADME; conditions: 1 h
# [5] = substrate: CC(C)(O)c1ccccc1CC[C@@H](SCC1(CC(=O)O)CC1)c1cccc(/C=C/c2ccc3ccc(Cl)cc3n2)c1; experiment: cells, lysate or membranes named
# Chain of Cytochrome P450 3A4 (P08684 whole entry): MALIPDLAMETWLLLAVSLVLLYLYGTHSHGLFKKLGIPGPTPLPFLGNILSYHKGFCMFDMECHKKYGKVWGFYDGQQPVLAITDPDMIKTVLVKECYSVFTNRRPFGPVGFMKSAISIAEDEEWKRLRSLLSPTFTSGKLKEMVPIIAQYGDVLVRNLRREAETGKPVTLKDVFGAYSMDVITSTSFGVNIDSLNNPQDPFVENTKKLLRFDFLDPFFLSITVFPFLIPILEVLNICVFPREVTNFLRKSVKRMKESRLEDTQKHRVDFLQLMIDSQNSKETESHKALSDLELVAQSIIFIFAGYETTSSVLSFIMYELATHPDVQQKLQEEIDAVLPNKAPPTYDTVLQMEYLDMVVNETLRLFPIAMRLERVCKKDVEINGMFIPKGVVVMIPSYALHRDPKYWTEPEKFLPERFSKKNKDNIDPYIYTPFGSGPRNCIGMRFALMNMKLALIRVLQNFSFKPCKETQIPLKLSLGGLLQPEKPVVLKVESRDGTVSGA
# Chain of Cytochrome P450 3A5 (P20815 whole entry): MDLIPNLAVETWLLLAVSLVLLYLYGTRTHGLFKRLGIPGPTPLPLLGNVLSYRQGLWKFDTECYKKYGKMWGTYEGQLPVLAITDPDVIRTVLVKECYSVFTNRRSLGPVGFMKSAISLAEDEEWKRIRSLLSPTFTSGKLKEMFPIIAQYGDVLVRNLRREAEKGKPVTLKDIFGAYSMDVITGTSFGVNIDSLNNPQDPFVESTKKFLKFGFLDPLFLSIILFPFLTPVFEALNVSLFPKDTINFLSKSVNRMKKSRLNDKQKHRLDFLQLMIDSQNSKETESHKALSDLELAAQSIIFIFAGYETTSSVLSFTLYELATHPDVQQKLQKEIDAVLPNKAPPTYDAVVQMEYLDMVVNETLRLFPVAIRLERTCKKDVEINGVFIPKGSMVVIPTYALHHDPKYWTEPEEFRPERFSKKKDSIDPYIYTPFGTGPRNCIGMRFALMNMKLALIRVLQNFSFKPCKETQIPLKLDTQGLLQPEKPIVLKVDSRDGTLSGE
molecule,measurement,setting,value
CC(C)(O)c1ccccc1CC[C@H](c1cccc(/C=C/c2ccc3ccc(Cl)cc3n2)c1)[S+]([O-])CC1(CC(=O)O)CC1 (stereo partly drawn),Drug metabolism,[1],metabolite_detected
CC(O)(C(=O)O)c1ccccc1CC[C@@H](SCC1(CC(=O)O)CC1)c1cccc(/C=C/c2ccc3ccc(Cl)cc3n2)c1 (stereo partly drawn),Drug metabolism,[1],metabolite_detected
same,Drug metabolism,[2],metabolite_detected
CC(C)(O)c1ccccc1C(O)C[C@@H](SCC1(CC(=O)O)CC1)c1cccc(/C=C/c2ccc3ccc(Cl)cc3n2)c1 (stereo partly drawn),Drug metabolism,[3],metabolite_detected
same,Drug metabolism,[1],metabolite_detected
same,Drug metabolism,[4],metabolite_detected
B1,Km,[5],0.19 µM
same,Vmax,[5],1.1e-07 µmol/min
